Results published in patent publication US20220127263A1, “Novel Compounds for the Treatment, Alleviation or Prevention of Disorders Associated with Tau Aggregates” (AC Immune SA, priority 2019, published 2022).
Read-outs that look alike come from different tables or passages of the source.

How the values were obtained:
[1] = biological target: T1, Tau K18 aggregates (Tau K18 fragment, amino acids 244 to 372 of human Tau441) (Homo sapiens, UniProt P10636); assay: Tau K18 disaggregation assay by ThT; format: biochemical; details: 2 μM K18 aggregates, 160 to 0.04 μM compound, 30 min RT, ThT fluorescence
T1 construct: encompassing amino acids 244 to 372 of the longest isoform (2N4R) of human Tau441; host or cells: bacteria
Experimental: Tau K18 Disaggregation Assay by ThT
The Tau K18 fragment, encompassing amino acids 244 to 372 of the longest isoform (2N4R) of human Tau441, was expressed in bacteria and purified or bought from SignalChem. For the K18 disaggregation assay by ThT, 35 μM of recombinant K18 in PBS were aggregated for 24 hours at 37° C. in presence of 50 μM of heparin (Sigma-Aldrich) and 10 mM of DTT (Sigma-Aldrich) under shaking at 750 RPM. Compounds were dissolved in anhydrous dimethyl sulfoxide (DMSO, Sigma-Aldrich) to reach a concentration of 10 mM. K18 aggregates and serial dilutions of compounds were mixed together in PBS (volume 50 μL) to a final concentration of 2 μM of K18 aggregates and from 160 to 0.04 μM of compounds. The mixture was incubated for 30 minutes at room temperature (RT), then 40 μL of this mixture were transferred into a black 384-well plate assay (Perkin-Elmer) and mixed with 10 μL of 100 μM ThT in 250 mM glycine (both from Sigma-Aldrich) in PBS. Fluorescence (relative fluorescence units; RFU) was measured in monoplicate or duplicate on a Tecan reader (excitation: 440 nm; emission: 485 nm). Percentage of K18 disaggregation was then calculated and half maximal effective concentration (EC50) was determined using GraphPad Prism version 5 (GraphPad Software) assuming a one-binding site fitting model.

[2] = CSF/Plasma ratio determination, in-vivo pharmacokinetics mouse p.o.; parameters: species or system CD-1 male mice; details: for CSF/plasma AUC ratio / AUC(0-t): male, CD-1, po; for AUC(0-t): plasma, read-out: Plasma AUC0-last
Experimental: CSF/Plasma Ratio Determination
Test compounds were administered to CD-1 male mice as a single oral dose of 10 or 20 mg/kg of a homogenous suspension (10 mL/kg, 1 or 2 mg/mL in 0.5% CMC (w/v) in water) by gavage using a plastic syringe fitted with a metal gavage tube. Terminal blood, brain and CSF samples were collected from three animals at several time points, typically at 2, 4, 8 and 24 h post-dose.
Blood samples were transferred into 1.5-mL plastic tubes containing K2-EDTA (0.5M, 3 uL) as an anti-coagulant and placed on wet ice, and were then processed to obtain plasma by centrifugation at approximately 5° C. (3000 g, 15 min) within 30 min after collection. An aliquot of 10 μL sample was protein precipitated with 150 μL IS, the mixture was vortex-mixed well and centrifuged at 13000 rpm for 10 min, 4° C. 30 μL supernatant was then mixed with 30 μL water, vortex-mixed well and centrifuged at 4° C. 2 μL sample was injected for LC-MS/MS analysis.
The collected CSF was transferred to polypropylene microcentrifuge tubes. CSF samples were added with an equal volume of plasma. An aliquot of 6 μL sample was protein precipitated with 90 μL IS, the mixture was vortex-mixed well and centrifuged at 13000 rpm for 10 min, 4° C. 30 μL supernatant was then mixed with 30 μL water, vortex-mixed well and centrifuged at 4° C. 2 μL sample was injected for LC-MS/MS analysis.
Test substance concentration in plasma and CSF versus time data were analyzed by non-compartmental approaches; AUC0-last in plasma and CSF were calculated with the log-linear trapezoidal rule. CSF/Plasma ratio was calculated as follows:
AUC0-last(CSF)/AUC0-last(plasma)

[3] = biological target: T2, full-length Tau (flTau, 2N4R) aggregates (Homo sapiens, UniProt P10636); assay: Tau disaggregation assay by DLS (dynamic light scattering); format: biochemical; details: 2 μM flTau aggregates, 20 μM compound, 60 min RT
T2 construct: 35 μM of recombinant full-length (fl)Tau in PBS were aggregated; made in house; host or cells: bacteria
Experimental: Tau disaggregation assay by DLS (dynamic light scattering)
The longest isoform of human Tau (2N4R; 441 amino acids) was expressed in bacteria. For the Tau disaggregation assay by DLS, 35 μM of recombinant full-length (fl)Tau in PBS were aggregated for 24 h at 37° C. in presence of 50 μM of heparin (Sigma-Aldrich) and 10 mM of DTT (Sigma-Aldrich) under shaking at 750 RPM. Morphomers™ were dissolved in DMSO (Sigma-Aldrich) to reach a concentration of 10 mM. flTau aggregates and compounds were mixed together in PBS (volume 80 μL) to a final concentration of 2 μM of flTau aggregates and 20 μM of Morphomers™. The mixture was incubated for 60 min at RT. Then […] of solution was transferred into a 40 μl cuvette (Malvern) and the size of flTau aggregates was measured with a Zetasizer Nano (Malvern) at an angle of 173° with 3 runs of 5 times 15 sec each. Number of events were taken into consideration to assess size of flTau aggregates. Percentage of disaggregation was then measured using the dynamic range between flTau monomers and flTau aggregates.

[4] = 20 mg/kg, AUC0-last(CSF)/AUC0-last(plasma)

T1 sequence (P10636 561-689): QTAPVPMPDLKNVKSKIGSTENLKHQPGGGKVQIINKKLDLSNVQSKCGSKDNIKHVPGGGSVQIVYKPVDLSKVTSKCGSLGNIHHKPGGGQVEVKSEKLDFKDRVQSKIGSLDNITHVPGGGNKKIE
T2 sequence (P10636 1-441 isoform P10636-8): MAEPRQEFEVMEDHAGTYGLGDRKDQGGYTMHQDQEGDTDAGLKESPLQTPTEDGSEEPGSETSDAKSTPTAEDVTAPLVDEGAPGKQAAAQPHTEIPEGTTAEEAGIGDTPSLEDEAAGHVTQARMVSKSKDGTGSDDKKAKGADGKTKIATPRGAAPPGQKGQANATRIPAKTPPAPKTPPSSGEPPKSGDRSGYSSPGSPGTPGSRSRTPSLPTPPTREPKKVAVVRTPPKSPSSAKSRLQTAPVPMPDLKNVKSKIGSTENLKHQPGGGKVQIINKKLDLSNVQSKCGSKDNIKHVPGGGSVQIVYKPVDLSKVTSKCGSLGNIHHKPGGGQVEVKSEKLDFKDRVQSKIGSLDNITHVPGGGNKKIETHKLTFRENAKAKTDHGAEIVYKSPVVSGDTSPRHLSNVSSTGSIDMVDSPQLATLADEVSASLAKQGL

Row | SMILES | EC50 [1] | CSF AUC0-last ([2]; 20 mg/kg) | CSF/plasma AUC ratio [2, 4] | AUC(0-t) ([2]; 20 mg/kg) | CSF AUC0-last ([2]; 10 mg/kg) | CSF/plasma AUC ratio ([2]; 10 mg/kg, AUC0-last(CSF)/AUC0-last(plasma)) | AUC(0-t) ([2]; 10 mg/kg) | DLS % Percentage of disaggregation (flTau) [3] | CSF/Plasma ratio [2, 4]
1 | Fc1cccc2[nH]c3c(c12)CN(c1ccc2oc(N4CCOCC4)nc2c1)CC3 [Comparative Example 3] | < 10 µM |  |  |  | 19.705 ng·h/mL | 0.004 | 4590 ng·h/mL |  | 
2 | Fc1cccc2c3c([nH]c12)CCN(c1ccc2oc(N4CCOCC4)nc2c1)C3 [Comparative Example 4] | < 10 µM | 66.5 ng·h/mL | 0.005 | 14500 ng·h/mL |  |  |  |  | 
3 | c1ccc2c3c([nH]c2c1)CCN(c1ccc2oc(N4CCOCC4)nc2c1)C3 [Example 1] | < 10 µM | 327.0 ng·h/mL | 0.014 | 23700 ng·h/mL |  |  |  | 25% | highest CSF/plasma ratio

Second part, the compound after the results:

Row | EC50 [1] | CSF AUC0-last ([2]; 20 mg/kg) | CSF/plasma AUC ratio [2, 4] | AUC(0-t) ([2]; 20 mg/kg) | CSF AUC0-last ([2]; 10 mg/kg) | CSF/plasma AUC ratio ([2]; 10 mg/kg, AUC0-last(CSF)/AUC0-last(plasma)) | AUC(0-t) ([2]; 10 mg/kg) | DLS % Percentage of disaggregation (flTau) [3] | CSF/Plasma ratio [2, 4] | SMILES
4 | < 10 µM | 121.03 ng·h/mL | 0.007 | 17400 ng·h/mL |  |  |  |  |  | Fc1ccc2[nH]c3c(c2c1)CN(c1ccc2oc(N4CCOCC4)nc2c1)CC3 [Comparative Example 1]
5 | < 10 µM | 56.70 ng·h/mL | 0.003 | 17800 ng·h/mL |  |  |  |  |  | Fc1ccc2c3c([nH]c2c1)CCN(c1ccc2oc(N4CCOCC4)nc2c1)C3 [Comparative Example 2]
6 | < 10 µM |  |  |  |  |  |  |  |  | c1ccc2c3c([nH]c2c1)CCN(c1ccc2oc(N4CCOCC4)nc2n1)C3 [Example 5]
